Laboratory results from US5795907A, “Gastin and CCK receptor ligands” (James Black Foundation Limited, priority 1994, dated 1998).

How the values were obtained:
CCKA = molecular target: T1, CCKA (Cavia porcellus, UniProt Q63931); assay: CCKA radioligand binding assay in guinea-pig pancreas membranes ([125I]-CCK8(S)); conditions: PD134,308 present, 150 minutes at 21±3°
T1 construct: The pancreatata were homogenised in 40 ml ice-cold HEPES buffer using a polytron; from tissue; host or cells: pancreas membranes of male Dunkin Hartley guinea-pigs
T1 sequence (Q63931 1-430): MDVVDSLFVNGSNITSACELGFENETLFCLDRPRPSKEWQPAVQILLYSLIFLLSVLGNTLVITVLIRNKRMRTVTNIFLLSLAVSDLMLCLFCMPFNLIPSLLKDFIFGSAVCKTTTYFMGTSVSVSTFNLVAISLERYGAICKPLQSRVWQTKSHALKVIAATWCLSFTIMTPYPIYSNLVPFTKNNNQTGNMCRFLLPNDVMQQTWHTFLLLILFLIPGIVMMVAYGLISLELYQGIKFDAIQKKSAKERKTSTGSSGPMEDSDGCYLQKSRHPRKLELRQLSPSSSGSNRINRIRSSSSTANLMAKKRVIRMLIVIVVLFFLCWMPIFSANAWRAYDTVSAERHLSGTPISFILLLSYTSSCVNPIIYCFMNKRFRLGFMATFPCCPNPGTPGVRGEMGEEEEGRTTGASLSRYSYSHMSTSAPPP
Outline: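 Competition for [125I]-CCK8(S) (added as […] solution) ran for 150 min at 21±3° in HEPES pH 7.2. Membranes came from male guinea-pig pancreas at 1 mg/ml original wet weight, with 0.375 μM PD134,308 in the suspension. Filter-bound counts were gamma-counted; 100 nM L-364,718 (added solution) defined non-specific binding.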

CCKB receptor = molecular target: T2, CCKB receptor (Mus musculus, UniProt P56481); assay: CCKB receptor radioligand binding assay in mouse cortical membranes ([125I]-CCK8S); conditions: [125I]-CCK8S 200 pM, 150 min at 21±3°
T2 construct: The cortex was dissected, weighed and homogenised in 40ml ice-cold buffer; tissue Charles River (supplier of the CD1 mice); host or cells: cerebral cortex membranes of male CD1 mice
T2 sequence (P56481 1-453): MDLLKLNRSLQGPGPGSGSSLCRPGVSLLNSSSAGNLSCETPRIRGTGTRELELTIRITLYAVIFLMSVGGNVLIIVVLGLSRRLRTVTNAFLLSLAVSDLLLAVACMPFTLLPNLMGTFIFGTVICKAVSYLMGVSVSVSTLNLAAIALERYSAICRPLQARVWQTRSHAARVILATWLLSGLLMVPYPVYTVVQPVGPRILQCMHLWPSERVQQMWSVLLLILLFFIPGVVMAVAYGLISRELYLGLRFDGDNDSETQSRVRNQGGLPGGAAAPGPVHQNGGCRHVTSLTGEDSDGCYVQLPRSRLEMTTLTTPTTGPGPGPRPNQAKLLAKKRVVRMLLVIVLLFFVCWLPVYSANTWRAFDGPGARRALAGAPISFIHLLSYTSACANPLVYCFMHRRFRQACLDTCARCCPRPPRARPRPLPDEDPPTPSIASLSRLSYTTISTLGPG
Outline: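 This was competition binding with tracer [125I]-CCK8S (200 pM solution added), run for 150 min at 21±3° on male CD1 mouse cortex membranes in pH 7.2 HEPES buffer with bacitracin. Filtration then gamma counting gave bound radioactivity. L-365,260 set the non-specific level.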

gastrin = molecular target: T3, gastrin (Rattus norvegicus, UniProt P30553); assay: gastrin antagonist activity in an immature rat stomach assay (pentagastrin-stimulated acid secretion); conditions: cumulative pentagastrin dose-response curves after 60 min with drug
T3 construct: The stomach was lowered into a jacketed organ bath containing 40 ml of buffered solution; from tissue; host or cells: isolated perfused whole stomach of immature rats (ca. 21 days old)
T3 sequence (P30553 1-452): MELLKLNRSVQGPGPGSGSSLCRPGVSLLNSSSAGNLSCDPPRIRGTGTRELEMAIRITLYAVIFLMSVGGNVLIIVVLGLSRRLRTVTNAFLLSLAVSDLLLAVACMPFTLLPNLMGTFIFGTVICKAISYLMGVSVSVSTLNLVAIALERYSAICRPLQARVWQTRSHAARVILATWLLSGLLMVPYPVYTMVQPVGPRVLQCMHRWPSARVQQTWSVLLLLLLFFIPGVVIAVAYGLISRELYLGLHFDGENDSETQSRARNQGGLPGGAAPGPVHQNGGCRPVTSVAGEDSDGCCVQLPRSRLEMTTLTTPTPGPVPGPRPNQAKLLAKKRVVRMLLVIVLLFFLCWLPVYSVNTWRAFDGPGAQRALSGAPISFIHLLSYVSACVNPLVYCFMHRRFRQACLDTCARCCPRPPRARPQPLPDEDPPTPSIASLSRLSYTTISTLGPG
Outline: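 Isolated lumen-perfused immature rat stomach (33-50 g, ca. 21 days) in 37° organ bath with 3×10^-8 M 5-methylfurmethide; acid secretion read by pH electrode in perfusate. Compound added to serosal bath after 120 min stabilisation; cumulative pentagastrin dose-response curves begun 60 min later and analysed by the Black et al. method.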

With `O=C(O)c1cc(NC(=O)[C@H](Cc2ccccc2Cl)NC(=O)c2cc3[nH]cnc3cc2C(=O)NCC23CC4CC(CC(C4)C2)C3)cc(C(=O)O)c1` [Example 135, 5-(1S-(3,5-dicarboxyphenylaminocarbonyl)-2-(2-chlorophenyl)ethylaminocarbonyl)-6-(1-adamantanemethylaminocarbonyl)-benzimidazole] the “CCKA pKi” value (CCKA) was 5.1, the “CCKB pKi” value (CCKB receptor) was 8.3 and the “Gastrin pKB” value (gastrin) was 8.9.
